Test results reported in patent US11318113B2, “Compounds for the treatment of diseases linked to mitochondrial reactive oxygen species (ROS) production” (OP2 DRUGS, priority 2015, dated 2022).
In brackets after ≈: the same amount, converted by molar mass.

Key:
[1] = Solubility limit in Kolliphor; assay type: physicochemical
[2] = test system: isolated pancreatic islets from mice; experiment: Glucose-stimulated insulin secretion (GSIS) in isolated pancreatic islets; assay type: cell-based, mouse; conditions: AOL 10 and 20 μM, 1 hour
Experimental: Pancreatic islets were isolated using the collagenase digestion method. Briefly, pancreas was inflated with Hanks solution containing 0.33 mg/mL of collagenase (Sigma-Aldrich), 5.6 mM glucose and 1% bovine serum albumin, pH 7.35, removed and kept at 37° C. for 6-9 minutes. After tissue digestion and exocrine removal by three consecutive washes, the islets were manually collected, under a binocular magnifier. Islets were left recovering from digestion by culturing for 20-24 hours in RPMI-1640 medium containing 11 mM glucose (Invitrogen, Calif., USA) and supplemented with 2 mM glutamine, 200 IU/mL penicillin, 200 μg/mL streptomycin and 8% fetal bovine serum stripped with charcoal-dextran (Invitrogen).
For each static GSIS experiment, islets from two mice were first incubated for 2 hours at 37° C. in 3 mL Krebs-bicarbonate buffer solution (in mM): […], 2 HEPES and 3 glucose, equilibrated with a mixture of 95% O2:5% CO2, pH 7.4. […] Insulin secretion in each well was calculated as ng of insulin per islet and per hour of incubation, and then expressed as percentage of insulin secretion in 11 mM glucose vehicle group, which was considered 100%.

[3] = test system: diet-induced obese (DIO) mice; experiment: Chronic ip treatment of diet-induced obese mice on high-fat diet; assay type: in vivo, mouse; conditions: for AUC of blood glucose during insulin tolerance test (ITT): vehicle 12812.50±750.35
Experimental: The aim of the study was to determine whether the compound AOL, administered daily at the doses of 5 mg/kg and 10 mg/kg for up to five weeks by intraperitoneal (ip) daily administration in diet-induced obese (DIO) mice fed with a high-fat diet (HFD), modifies food intake, body weight, adiposity and glucose metabolism.
Mice were fed ad libitum with a HFD (60% of calories from fat, mostly lard) for twelve weeks before the pharmacological study begun. Animals received AOL or its vehicle by intraperitoneal (ip) administration and were maintained on HFD for the length of the study. Food intake and body weight were measured daily and recorded for up to three consecutive weeks.
Thirty 7-weeks-old male C57/B16J mice arrived to the laboratory on 25 Feb. 2016 and underwent a first in vivo body composition analysis (Echo MRI 900, EchoMRI Systems) after 1 week of adaptation to the experimental housing room. After this first MRI analysis, animals were fed a high-fat diet (HFD) ad libitum for a period of twelve weeks. Thereafter, they underwent a second MRI analysis and were distributed into 3 experimental groups of equivalent body weight and body composition.
Once the pharmacological treatment started (day 1), food intake (FI) and body weight (BW) were measured daily before the dark phase in animals housed in their home cage. Spillage of food was checked daily. The food consumed was calculated by subtracting the food left in the hoppers from the initial pre-weighted amount. FI and BW were measured for three consecutive weeks. Afterwards animals underwent a third MRI analysis in order to observe potential effects of the treatment onto the body composition (changes in fat and lean mass), followed by a glucose tolerance test (GTT) and an insulin tolerance test (ITT). Mice received daily ip administration of AOL or its vehicle for a total length of five weeks, until they were sacrificed.
A nuclear echo magnetic resonance imaging whole-body composition analyzer (Echo MRI 900; EchoMedical Systems) was used to repeatedly assess body fat and lean mass in conscious mice.
Animals were injected ip with 1.5 g/kg of D-Glucose (Sigma-Aldrich) for the GTT or with 0.5 U/kg of insulin (Humulin, Lilly, France) for the ITT. For the GTT and the ITT, animals were fasted overnight. The tests were conducted the following morning. Blood samples were taken from the tail vein at different time points (0, 15, 30, 60, 90 and 120 minutes after the ip administration of glucose or insulin) and glucose concentration was measured using glucose sticks (OneTouch Vita, Lifescan France, Issy les Moulineaux, France).
At sacrifice, blood samples were collected, blood glucose was rapidly assessed using glucose sticks and blood samples were then centrifuged at 3000 rpm for 15 minutes. The obtained plasma was stored at −80° C. for subsequent measurement of insulin, which was carried out by performing an ELISA (kit from Mercodia, Uppsala, Sweden), according to the manufacturer's instructions.

Compound: COc1ccc(-c2cc(=S)ss2)cc1 [AOL, 5-(4-methoxyphenyl)-3H-1,2-dithiole-3-thione]
- solubility limit [1]: 2800 µM (≈ 673 µg/mL)
- GSIS increase as compared to the 11 mM glucose vehicle group [2]: 65-75%
- blood glucose levels ([3]; 2-hour fasted mice, after five weeks of treatment): tended to decrease
- body weight and % change of body weight ([3]; 5 and 10 mg/kg ip daily): did not have a significant effect
- AUC of blood glucose during insulin tolerance test (ITT) ([3]; AOL 5 mg/kg): 15006.56±1139.69
- action of insulin on circulating glucose levels during an ITT ([3]; AOL 10 mg/kg): significantly blunted
- AUC of blood glucose during insulin tolerance test (ITT) ([3]; AOL 10 mg/kg, p=0.0107 vs vehicle): 18168.33±1562.90
- lean mass ([3]; after three weeks, 5 and 10 mg/kg ip daily): did not have any effect
- fat mass ([3]; after three weeks, 5 and 10 mg/kg ip daily, p=0.13): tended to reduce
- body weight and food intake ([3]; chronic daily administration, data not shown): tended to decrease
